Assay results taken from patent publication US20110136229A1, “Novel lectin” (National Taiwan University, priority 2009, published 2011).
In brackets after ≈: the same amount, converted by molar mass.

Key:
CPL = assay: Hemagglutination inhibition assay on CPL by various sugars (MIC); format: cell-based, Carica papaya; conditions: minimum inhibitory concentration for inhibition of 16 hemagglutination titers, 2% human erythrocytes
Experimental: The HA titer of the purified lectin in the present invention was 512. The purified lectin was diluted to have the HA titer as 16, and then mixed with various sugar solution to test hemagglutination inhibition on CPL by various sugars. The results were illustrated in Table 3, wherein MIC indicated minimum inhibitory concentrations required for inhibition of 16 hemagglutination titers of the lectin of the present invention against 2% human 0-type erythrocytes, and all sugars are of D configuration.

lectin of Carica papaya = assay: Analysis of sugar-binding specificity (inhibition of lectin-induced hemagglutination by sugars, IC50); format: cell-based; conditions: lowest sugar concentration inhibiting 50% agglutinating activity; peak 1 diluted to HA titer 32
Experimental: The N-acetylgalactosamine, galactose, lactose, mannose, N-acetylglucosamine solutions were respectively added to the same volume of the samples, and the final sugar concentrations of the solutions were 3.1, 6.3, 12.5, 25, 50 and 100 mM, respectively. Upon well mixing, 50 μL of the mixture of the sample and the sugar solution was added to 50 μL of the human type O erythrocyte suspension (2×10^8 cells/mL) in the 96-well plate. Then, the 96-well plate was placed at 37 °C for 30 minutes, and the inhibition of the hemagglutination was observed. IC50 was defined as the lowest sugar concentration capable of inhibiting 50% agglutinating activity, wherein the inhibition area of the agglutination was at least half area of the bottom of the well.
In this embodiment, the fraction of the peak 1 (HA titer being 512) was diluted for 16 folds (HA titer being 32) for the analysis.

[1] = system: CPL (Carica papaya lectin), purified lectin from papaya seeds; assay: Interaction between CPL and immobilized GalNAc residues by surface plasmon resonance; format: binding; conditions: GalNAc-PAA-biotin polymers immobilized on SA chip, CPL 1.8-30 nM as analyte, Biacore T100
Experimental: (3) Interaction Between CPL and Immobilized GalNAc Residues by Surface Plasmon Resonance
GalNAc-PAA-biotin polymers were immobilized to a sensor chip modified with streptavidin (SA). The regeneration solution for the chip was 50 mM phosphate saline buffer (pH 7.0) containing 200 mM GalNAc. The concentrations of the purified CPL were adjusted to 30, 15, 7.5, 3.7 and 1.8 nM to be analytes, then subjected to the sensor chip immobilized with GalNAc-PAA-biotin polymers, and analyzed by Biacore T100 surface plasmon resonance analyzing machine. The obtained sensorgrams were analyzed and calculated by BIACORE T100 Evaluation software 2.0. After CPL was combined with GalNAc ligand on the sensor chip, the dissociation curve declined gradually. In other words, CPL had great affinity to GalNAc. […] (4) Immunomodulatory Effect of CPL on the Cytotoxicity and Induction of Cytokine Production in Jurkat T Lymphocytes

Jurkat T lymphocytes [2] = assay: IL-2 cytokine production in Jurkat T lymphocytes; format: cell-based, human; conditions: 10 μg/mL, 24 hr
Experimental: (§1) The purified CPL was added to respective 1.8 mL of Jurkat T lymphocytes (2×10^6), wherein the final concentrations of CPL were 24, 12, 6 and 3 μg/mL, respectively. After incubation for 24 hours, cell viability was measured by cell proliferation reagent, WST-1 (4-[3-(4-iodophenyl)-2-(4-nitrophenyl)-2H-5-tetrazolio]-1,3-benzene disulfonate), and the cytokine content in the incubation medium was analyzed. […] 24 μg/mL of CPL had inhibition effect on Jurkat T lymphocytes similar to that of 10 μg/mL of SBA, i.e., inhibiting 30% of viability after 24-hour incubation.
In the control group of Jurkat T lymphocyte without lectin added therein, the concentration of IL-2 upon 24 hr incubation was approximately or lower than 10 pg/mL. However, upon incubation with lectin, Jurkat T lymphocytes were induced to secrete IL-2 into the culture medium. The concentrations of IL-2 secreted from Jurkat T lymphocytes incubated with SBA and PHA (10 μg/mL) were 377±1 and 308±7 pg/mL, respectively. After Jurkat T lymphocytes were incubated with various concentrations of CPL for 24 hours, the concentration of IL-2 in the medium was proportional to the concentration of CPL. In the medium added with 3 μg/mL of CPL, the concentration of IL-2 was 9.7 pg/mL, which had no significant difference from the control group. In the medium added with 6 μg/mL of CPL, the concentration of IL-2 was 44.5 pg/mL. […]

Jurkat T lymphocytes [3] = format: cell-based, human; conditions: 1 μg/mL, 24 hours
Experimental: as §1, with “The purified CPL was added to respective 1.8 mL of Jurkat T lymphocytes (2×10^6), wherein the final concentrations of CPL were 24, 12, 6 and 3 μg/mL, respectively.” left out

Row | Compound | MIC (CPL) | IC50 (lectin of Carica papaya) | further results
1 | O=C[C@H](O)[C@@H](O)[C@@H](O)[C@H](O)CO [Galactose] | >100 mM | > 100 mM | 
2 | OC[C@H]1O[C@@H](O[C@H]2[C@H](O)[C@@H](O)C(O)O[C@@H]2CO)[C@H](O)[C@@H](O)[C@H]1O (stereo partly shown) [Lactose] | 6.3 mM (≈ 2.16 mg/mL) | 6.3 mM | 
3 | CC(=O)N[C@H]1C(O)O[C@H](CO)[C@H](O)[C@@H]1O (stereo partly shown) [N-acetylgalactosamine] | 6.3 mM (≈ 1.39 mg/mL) | 6.3 mM | combination rate (Kon) [1]: 5.5×10^4 1/MS; dissociation rate (Koff) [1]: 3×10^−4 1/S; Kd ([1]; read-out: dissociation constant (Kd)): ~5.5 nM
4 | CC(=O)N[C@H]1C(O)O[C@H](CO)[C@@H](O)[C@@H]1O (stereo partly shown) [N-acetylglucosamine] |  | > 100 mM | MIC (CPL; listed as GlcNAc): >100 mM
5 | SBA: soybean agglutinin, which specifically binds to GalNAc |  |  | concentration of IL-2 in medium (Jurkat T lymphocytes [2]): 377 ± 1 pg/mL; effect on viability (Jurkat T lymphocytes [3]): no significant effect
